Data published in ChEMBL document CHEMBL1201862, “PubChem BioAssay data set” (2004).
Active and inactive are the calls of the source.

Legend:
[1] = A High Throughput Confirmatory Assay used to Identify Novel Compounds that Inhibit Mycobacterium Tuberculosis in the absence of Glycerol.; type: functional
[2] = microbe, parasite or virus in culture; type: functional; settings: Mycobacterium tuberculosis
Mucolipin-3 = Mucolipin-3 (Homo sapiens, UniProt Q8TDD5); experiment: Dose response cell-based high-throughput screening assay for agonists of the transient receptor potential channel ML3 (TRPML3). [Related pubchem assays: 1526, 1424, 1448 ]; type: functional
Chain of Mucolipin-3 (Q8TDD5 whole entry): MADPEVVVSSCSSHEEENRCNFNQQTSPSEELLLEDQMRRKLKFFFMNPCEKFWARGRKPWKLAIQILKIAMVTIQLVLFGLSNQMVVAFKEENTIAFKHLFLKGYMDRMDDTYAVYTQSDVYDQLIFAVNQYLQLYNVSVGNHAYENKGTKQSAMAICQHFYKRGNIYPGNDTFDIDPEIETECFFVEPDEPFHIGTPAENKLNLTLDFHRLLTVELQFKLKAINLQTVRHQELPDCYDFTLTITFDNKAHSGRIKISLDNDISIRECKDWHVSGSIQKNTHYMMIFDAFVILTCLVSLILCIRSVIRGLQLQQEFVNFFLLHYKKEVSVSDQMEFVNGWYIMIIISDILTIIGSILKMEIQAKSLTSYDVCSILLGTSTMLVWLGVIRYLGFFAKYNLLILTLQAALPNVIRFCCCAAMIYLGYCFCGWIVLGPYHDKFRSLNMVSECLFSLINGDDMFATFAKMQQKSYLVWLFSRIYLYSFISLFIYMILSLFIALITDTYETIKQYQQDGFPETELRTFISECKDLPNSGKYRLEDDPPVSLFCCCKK

Ion channel NompC = Ion channel NompC (Danio rerio, UniProt Q7T1G6); experiment: Fluorescence counterscreen assay for TRPML3 agonists: dose response cell-based high-throughput screening assay to identify agonists of the transient receptor potential channel N1 (TRPN1). [Related pubchem assays: 1526, 1424, 1448 ]; type: functional
Chain of Ion channel NompC (Q7T1G6 whole entry, the tested form may be a part): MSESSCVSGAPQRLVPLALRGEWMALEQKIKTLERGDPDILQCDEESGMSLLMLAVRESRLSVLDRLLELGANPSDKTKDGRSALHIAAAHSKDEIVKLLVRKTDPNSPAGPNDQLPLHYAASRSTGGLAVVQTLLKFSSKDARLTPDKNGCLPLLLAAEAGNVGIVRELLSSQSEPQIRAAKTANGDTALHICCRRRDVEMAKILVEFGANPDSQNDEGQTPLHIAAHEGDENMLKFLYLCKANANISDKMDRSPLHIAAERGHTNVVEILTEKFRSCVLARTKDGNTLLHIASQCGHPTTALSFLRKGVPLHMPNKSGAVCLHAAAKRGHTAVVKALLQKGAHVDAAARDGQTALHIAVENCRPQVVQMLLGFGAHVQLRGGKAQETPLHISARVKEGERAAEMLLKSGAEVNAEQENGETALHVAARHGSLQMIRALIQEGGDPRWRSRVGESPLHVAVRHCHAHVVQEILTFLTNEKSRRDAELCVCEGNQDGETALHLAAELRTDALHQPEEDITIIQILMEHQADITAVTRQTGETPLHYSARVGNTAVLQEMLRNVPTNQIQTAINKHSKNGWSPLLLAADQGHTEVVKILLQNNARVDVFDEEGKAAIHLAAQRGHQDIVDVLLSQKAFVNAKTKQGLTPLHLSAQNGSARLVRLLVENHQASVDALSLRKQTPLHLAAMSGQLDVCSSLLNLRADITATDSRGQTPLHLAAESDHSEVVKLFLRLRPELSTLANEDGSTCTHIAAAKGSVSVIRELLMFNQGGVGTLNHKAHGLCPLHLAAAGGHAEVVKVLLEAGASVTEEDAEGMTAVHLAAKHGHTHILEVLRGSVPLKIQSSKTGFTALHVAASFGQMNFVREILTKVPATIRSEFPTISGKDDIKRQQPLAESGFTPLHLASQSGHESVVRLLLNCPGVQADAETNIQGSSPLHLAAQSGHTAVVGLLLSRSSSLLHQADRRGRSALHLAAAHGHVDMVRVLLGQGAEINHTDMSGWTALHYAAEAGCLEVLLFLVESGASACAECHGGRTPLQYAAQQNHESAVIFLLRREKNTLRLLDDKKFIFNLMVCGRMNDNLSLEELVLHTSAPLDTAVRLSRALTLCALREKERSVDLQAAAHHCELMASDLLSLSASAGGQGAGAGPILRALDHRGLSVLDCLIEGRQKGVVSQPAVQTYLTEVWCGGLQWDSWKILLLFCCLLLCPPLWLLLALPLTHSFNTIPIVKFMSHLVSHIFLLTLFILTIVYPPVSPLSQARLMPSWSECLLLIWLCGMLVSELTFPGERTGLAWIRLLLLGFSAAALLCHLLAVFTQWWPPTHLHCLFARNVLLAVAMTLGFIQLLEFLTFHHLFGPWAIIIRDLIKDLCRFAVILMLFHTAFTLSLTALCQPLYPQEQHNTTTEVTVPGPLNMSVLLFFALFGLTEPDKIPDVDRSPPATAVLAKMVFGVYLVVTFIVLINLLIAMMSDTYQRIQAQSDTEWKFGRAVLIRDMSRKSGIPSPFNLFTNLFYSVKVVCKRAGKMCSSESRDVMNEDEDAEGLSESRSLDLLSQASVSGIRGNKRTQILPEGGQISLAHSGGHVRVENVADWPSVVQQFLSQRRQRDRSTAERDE

[3] = blockers of HIV-1 envelope-mediated cell-cell fusion – cherry-pick, dose response (AID 652057); type: functional, cell-based
[4] = blockers of HIV-1 ZM109 envelope-driven cell-cell fusion – HeLa effector, CEM target cells, luciferase, cherry-pick, dose response (AID 652058); type: functional, cell-based;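 also: luciferase signal from HIV-1 Env mediated cell-cell fusion of effector and target cells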
[5] = off-target signal loss in HeLa-CEM21 co-culture – HeLa F-luc CTL cells, cherry-picked, counter-screen for HIV-1 Env fusion inhibitor project, dose response (AID 652040); type: functional, cell-based;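 also: potency for signal decrease marking cytotoxic or nonspecific inhibition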
[6] = HIV-1 AD8 envelope cell-cell fusion blockers – cherry-pick, dose response (AID 652062); type: functional, cell-based;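 also: luciferase signal from cell-cell fusion driven by HIV-1 clade B AD8 Env; potency is for inhibitors of fusion seen as a drop in luminescence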
[7] = target: 5-hydroxytryptamine receptor 1E (Homo sapiens, UniProt P28566); experiment: Counterscreen assay for S1P3 antagonists: Dose response cell-based high throughput screening assay to identify antagonists of the 5-Hydroxytryptamine Receptor Subtype 1E (5HT1E). [Related pubchem assays: 1429, 485 ]; type: functional
Chain of 5-hydroxytryptamine receptor 1E (P28566 whole entry): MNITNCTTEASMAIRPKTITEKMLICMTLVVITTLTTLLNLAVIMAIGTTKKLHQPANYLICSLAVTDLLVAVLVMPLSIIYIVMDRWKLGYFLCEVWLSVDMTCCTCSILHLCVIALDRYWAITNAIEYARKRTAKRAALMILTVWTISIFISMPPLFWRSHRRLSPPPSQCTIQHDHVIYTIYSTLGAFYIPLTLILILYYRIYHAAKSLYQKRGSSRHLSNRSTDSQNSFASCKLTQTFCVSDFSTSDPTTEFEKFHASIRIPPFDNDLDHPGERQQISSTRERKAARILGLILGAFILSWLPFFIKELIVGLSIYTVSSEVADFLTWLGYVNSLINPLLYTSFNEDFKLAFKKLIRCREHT

[8] = target: Sphingosine 1-phosphate receptor 3 (Homo sapiens, UniProt Q99500); experiment: Dose response cell-based high throughput screening assay for antagonists of the Sphingosine 1-Phosphate Receptor 3 (S1P3). [Related pubchem assays: 1429, 485 ]; type: functional
Chain of Sphingosine 1-phosphate receptor 3 (Q99500 whole entry): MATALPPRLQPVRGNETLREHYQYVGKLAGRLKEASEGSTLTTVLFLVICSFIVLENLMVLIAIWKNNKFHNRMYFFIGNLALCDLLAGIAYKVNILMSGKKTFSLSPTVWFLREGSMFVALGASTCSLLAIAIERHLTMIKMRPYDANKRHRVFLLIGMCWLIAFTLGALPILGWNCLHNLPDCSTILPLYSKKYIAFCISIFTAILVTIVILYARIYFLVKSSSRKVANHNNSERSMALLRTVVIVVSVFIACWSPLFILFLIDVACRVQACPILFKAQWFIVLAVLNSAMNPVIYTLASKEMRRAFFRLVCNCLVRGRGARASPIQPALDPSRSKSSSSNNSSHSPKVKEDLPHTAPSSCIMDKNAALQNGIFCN

[9] = target: Sphingosine 1-phosphate receptor 2 (Homo sapiens, UniProt O95136); experiment: Dose Response Cell Based Assay for Agonists of the S1P2 Receptor of Purchased Analogues. [Related pubchem assays: 729, 843, 854, 736 ]; type: functional
Chain of Sphingosine 1-phosphate receptor 2 (O95136 whole entry): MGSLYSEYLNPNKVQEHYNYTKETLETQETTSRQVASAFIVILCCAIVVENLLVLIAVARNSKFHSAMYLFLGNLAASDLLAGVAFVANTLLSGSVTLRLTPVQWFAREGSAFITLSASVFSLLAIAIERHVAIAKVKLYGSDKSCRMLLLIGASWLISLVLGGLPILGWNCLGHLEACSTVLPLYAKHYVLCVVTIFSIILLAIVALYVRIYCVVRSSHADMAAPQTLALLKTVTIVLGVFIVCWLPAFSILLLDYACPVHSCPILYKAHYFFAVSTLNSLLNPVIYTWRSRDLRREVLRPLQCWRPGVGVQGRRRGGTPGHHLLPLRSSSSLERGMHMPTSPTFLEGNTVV

[10] = tested on: Streptococcus sp. 'group A'; experiment: Streptococcus pyogenes SK(-)GAS viability under kanamycin – luminescence, BacTiterGlo, confirmation, counter-screen for streptokinase expression inhibitor project, dose response (AID 1900); type: functional, organism-based
Streptococcus [11] = experiment: Luminescence Microorganism-Based Dose Response Follow up to Identify Compounds Cytotoxic to Streptococcus. [Related pubchem assays: 1677 (Project Summary), 1915, 1914, 1902 (Retest at Dose), 1900 (Counter Screen), 1662 (Primary HTS)]; type: functional, organism-based
Streptokinase A [12] = target: T1, Streptokinase A (Streptococcus pyogenes serotype M1, UniProt P10520); experiment: viability-normalized secreted streptokinase activity reduction – plasminogen activation absorbance, OD405, dose response (AID 1914); type: functional, Streptococcus pyogenes M1 GAS;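 also: secreted streptokinase activity via plasminogen activation per viability signal from cell pellet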
T1 sequence (P10520 whole entry): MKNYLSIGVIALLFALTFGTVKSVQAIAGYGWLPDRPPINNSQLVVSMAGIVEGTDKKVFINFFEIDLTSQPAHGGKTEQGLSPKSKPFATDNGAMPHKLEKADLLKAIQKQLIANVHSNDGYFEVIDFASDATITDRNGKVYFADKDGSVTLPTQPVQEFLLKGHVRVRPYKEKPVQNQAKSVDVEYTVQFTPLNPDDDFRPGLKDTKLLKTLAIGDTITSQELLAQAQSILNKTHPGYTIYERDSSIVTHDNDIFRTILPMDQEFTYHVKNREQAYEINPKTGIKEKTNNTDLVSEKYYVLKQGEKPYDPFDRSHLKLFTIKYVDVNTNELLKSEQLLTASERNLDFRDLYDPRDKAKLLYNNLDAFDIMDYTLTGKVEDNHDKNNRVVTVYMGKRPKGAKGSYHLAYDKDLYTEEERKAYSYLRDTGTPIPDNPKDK

Streptokinase A [13] = target: T1, Streptokinase A; experiment: Absorbance Microorganism-Based Dose Response Follow up to Identify Inhibitors of Streptokinase Expression. [Related pubchem assays: 1677 (Project Summary), 1915, 1914, 1902 (Retest at Dose), 1900 (Counter Screen), 1662 (Primary HTS)]; type: functional, Streptococcus pyogenes M1 GAS
Streptococcus [14] = experiment: GAS UMAA2166 growth inhibition – luminescence, BacTiterGlo, counter-screen for streptokinase expression inhibitor project, dose response (AID 1915); type: functional, organism-based;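 also: potency for reduction of bacterial viability or growth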
[15] = viability inhibitors of stage V gametocytes – luminescence, dose response (AID 1117278); type: functional, cell-based;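 also: gametocytes exposed to compound for 24 hours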
[16] = viability loss in human Jurkat cells – cell-based, luminescence, cytotoxicity control for P. falciparum gametocyte viability project, dose response (AID 1117277); type: functional;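 also: potency reflects loss of cellular ATP meaning fewer viable cells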
Cytochrome P450 2C9 = Cytochrome P450 2C9 (Homo sapiens, UniProt P11712)
Chain of Cytochrome P450 2C9 (P11712 whole entry): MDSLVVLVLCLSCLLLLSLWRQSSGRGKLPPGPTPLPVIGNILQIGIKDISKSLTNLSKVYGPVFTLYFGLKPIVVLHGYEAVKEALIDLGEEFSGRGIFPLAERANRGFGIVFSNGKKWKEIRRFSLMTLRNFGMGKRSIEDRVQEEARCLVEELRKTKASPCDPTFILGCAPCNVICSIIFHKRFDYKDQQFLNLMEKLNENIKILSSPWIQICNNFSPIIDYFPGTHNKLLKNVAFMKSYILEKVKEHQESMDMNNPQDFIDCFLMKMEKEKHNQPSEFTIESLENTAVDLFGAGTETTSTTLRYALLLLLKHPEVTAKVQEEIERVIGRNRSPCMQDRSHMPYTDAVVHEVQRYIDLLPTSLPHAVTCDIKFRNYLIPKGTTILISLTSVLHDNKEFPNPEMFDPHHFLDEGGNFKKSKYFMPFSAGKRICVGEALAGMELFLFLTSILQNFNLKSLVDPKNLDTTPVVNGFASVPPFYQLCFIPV

[17] = Absorbance Microorganism-Based Dose Response Follow up to Identify Inhibitors of Streptokinase Expression. [Related pubchem assays: 1677 (Project Summary), 1915, 1914, 1902 (Retest at Dose), 1900 (Counter Screen), 1662 (Primary HTS)]
[18] = target: Epstein-Barr nuclear antigen 1 (Epstein-Barr virus (strain B95-8) (HHV-4) (Human herpesvirus 4), UniProt P03211); experiment: inhibition of EBV nuclear antigen 1 DNA binding – biochemical, fluorescence polarization, 1536-well, dose response (AID 2381); design: species or system human gammaherpesvirus 4;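 also: fluorescence polarization of a Cy5 DNA probe bound by EBNA-1 protein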
[19] = target: Lytic switch protein BZLF1 (Epstein-Barr virus (strain B95-8) (HHV-4) (Human herpesvirus 4), UniProt P03206); experiment: inhibition of BZLF1 ZTA DNA binding – biochemical, fluorescence polarization, Epstein-Barr virus, 1536-well, counter-screen for EBNA-1 inhibitor project, dose response (AID 2377); design: species or system human gammaherpesvirus 4;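 also: fluorescence polarization of Cy5-labelled ZRE DNA probe bound by purified Zta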
Chain of Lytic switch protein BZLF1 (P03206 whole entry): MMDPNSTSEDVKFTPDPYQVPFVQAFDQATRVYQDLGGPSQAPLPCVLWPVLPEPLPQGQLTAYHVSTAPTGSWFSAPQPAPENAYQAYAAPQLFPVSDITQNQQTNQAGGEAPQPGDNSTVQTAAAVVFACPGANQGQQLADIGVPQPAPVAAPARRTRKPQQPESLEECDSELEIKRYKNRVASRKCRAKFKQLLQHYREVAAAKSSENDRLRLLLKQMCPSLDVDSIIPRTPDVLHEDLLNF

[20] = Luminescence Cell-Based Dose Response to Identify Activators of 5'UTR Stem-Loop Driven Prion Protein mRNA Translation in H4-C Neuroglioblastoma Cells. [Related pubchem assays: 1829 (Project Summary), 1814 (Primary HTS)]; type: functional
[21] = Luminescence Cell-Based Dose Response HTS to Identify Activators of Luciferase Translation or Activity in H4 […] Cells. [Related pubchem assays: 1829 (Project Summary), 1814 (Primary HTS)]; type: functional
[22] = target: Luciferin 4-monooxygenase (Photinus pyralis, UniProt P08659); experiment: Counter Screen for Luciferase-based Assay Positives. [Related pubchem assays: 620, 618, 411 ]
Chain of Luciferin 4-monooxygenase (P08659 whole entry): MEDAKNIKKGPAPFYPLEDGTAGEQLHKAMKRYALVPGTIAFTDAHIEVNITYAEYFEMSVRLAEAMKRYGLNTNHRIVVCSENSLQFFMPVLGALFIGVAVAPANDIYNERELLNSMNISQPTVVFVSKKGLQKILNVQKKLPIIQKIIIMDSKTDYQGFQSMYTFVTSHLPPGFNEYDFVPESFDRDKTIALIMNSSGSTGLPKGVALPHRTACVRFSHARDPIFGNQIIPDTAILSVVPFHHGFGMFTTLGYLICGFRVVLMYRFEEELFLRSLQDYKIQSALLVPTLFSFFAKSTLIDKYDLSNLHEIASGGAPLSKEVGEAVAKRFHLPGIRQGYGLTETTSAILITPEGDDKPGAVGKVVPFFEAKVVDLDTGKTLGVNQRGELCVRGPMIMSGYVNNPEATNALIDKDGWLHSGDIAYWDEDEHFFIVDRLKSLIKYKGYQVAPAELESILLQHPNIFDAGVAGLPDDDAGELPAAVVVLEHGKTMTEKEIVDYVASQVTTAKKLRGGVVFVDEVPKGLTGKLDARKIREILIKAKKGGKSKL

[23] = Luminescence Cell-Based Dose Response to Identify Activators of Luciferase Translation or Activity in H4-C Neuroglioblastoma Cells. [Related pubchem assays: 1829 (Project Summary), 1814 (Primary HTS)]; type: functional
HT-1080 = experiment: HT1080 cell viability loss – fluorescence readout (AID 620); type: functional, cell-based; settings: Homo sapiens
[24] = target: T2, Calpain-2 catalytic subunit (Sus scrofa, UniProt P43367); experiment: m-calpain protease blockers, concentration series – biochemical, fluorogenic peptide substrate, dose response (AID 1420); type: functional
T2 sequence (P43367 whole entry): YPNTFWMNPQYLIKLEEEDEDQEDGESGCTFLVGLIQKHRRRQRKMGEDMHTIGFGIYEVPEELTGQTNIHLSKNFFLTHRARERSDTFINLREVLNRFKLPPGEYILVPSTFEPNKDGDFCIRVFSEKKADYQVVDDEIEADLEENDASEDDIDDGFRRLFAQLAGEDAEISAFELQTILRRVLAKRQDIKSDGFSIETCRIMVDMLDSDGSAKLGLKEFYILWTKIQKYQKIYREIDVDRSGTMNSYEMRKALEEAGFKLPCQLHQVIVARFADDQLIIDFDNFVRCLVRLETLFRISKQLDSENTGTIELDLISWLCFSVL

[25] = Luminescence Cell-Based Dose Confirmation to Identify Activators of 5'UTR Stem-Loop Driven Alpha-Synuclein mRNA Translation in H4 Neuroglioblastoma Cells. [Related pubchem assays: 1829 (Project Summary), 1814 (Primary HTS)]; type: functional
[26] = mitochondrial function rescue without frataxin homolog – Friedreich's ataxia, plus single-dose screen, dose response (AID 1465); type: functional;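 also: yeast depleted of Yfh1p frataxin homolog grown on glycerol needing respiration; WST-1 tetrazolium dye reduction as measure of cellular dehydrogenase metabolic activity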
[27] = target: 26S proteasome non-ATPase regulatory subunit 14 (Homo sapiens, UniProt O00487); experiment: inhibition of proteasome subunit RPN11 – biochemical, fluorescence polarization, uHTS hits, confirmation (AID 602368); type: functional
Chain of 26S proteasome non-ATPase regulatory subunit 14 (O00487 whole entry): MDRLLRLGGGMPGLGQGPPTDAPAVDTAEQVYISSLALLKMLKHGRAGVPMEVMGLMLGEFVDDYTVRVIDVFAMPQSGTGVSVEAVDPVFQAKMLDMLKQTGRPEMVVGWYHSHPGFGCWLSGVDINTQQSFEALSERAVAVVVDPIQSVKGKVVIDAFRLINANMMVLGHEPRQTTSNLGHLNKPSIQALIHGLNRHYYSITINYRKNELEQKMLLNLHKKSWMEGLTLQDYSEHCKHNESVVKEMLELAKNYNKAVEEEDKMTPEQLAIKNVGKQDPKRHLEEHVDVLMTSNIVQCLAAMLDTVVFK

[28] = target: 72 kDa type IV collagenase (Homo sapiens, UniProt P08253); experiment: Dose Response validation of uHTS RPN11 inhibitor hits using a MMP-2 Fluorescence assay.; type: functional
Prothrombin = Prothrombin (Bos taurus, UniProt P00735); experiment: thrombin protease inhibitors – biochemical, fluorescence polarization, uHTS hits, dose response (AID 602369); type: functional
NADPH oxidase 1 [29] = target: T3, NADPH oxidase 1 (Homo sapiens, UniProt Q9Y5S8); type: functional, cell-based
T3 sequence (Q9Y5S8 whole entry): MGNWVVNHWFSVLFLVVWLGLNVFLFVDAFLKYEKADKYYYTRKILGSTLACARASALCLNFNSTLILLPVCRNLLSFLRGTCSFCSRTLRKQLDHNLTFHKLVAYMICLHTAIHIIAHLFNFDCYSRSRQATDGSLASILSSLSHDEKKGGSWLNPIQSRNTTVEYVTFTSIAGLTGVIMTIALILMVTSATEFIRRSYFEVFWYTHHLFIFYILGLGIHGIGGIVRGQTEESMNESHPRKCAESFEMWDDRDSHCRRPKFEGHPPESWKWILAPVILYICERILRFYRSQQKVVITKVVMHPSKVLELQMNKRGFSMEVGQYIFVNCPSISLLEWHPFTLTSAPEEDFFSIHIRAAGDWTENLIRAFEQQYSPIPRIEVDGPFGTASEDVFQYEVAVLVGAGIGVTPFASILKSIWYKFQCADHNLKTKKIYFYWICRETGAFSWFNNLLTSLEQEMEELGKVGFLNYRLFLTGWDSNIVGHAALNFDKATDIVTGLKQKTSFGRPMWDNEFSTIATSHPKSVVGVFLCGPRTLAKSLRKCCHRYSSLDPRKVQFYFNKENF

NADPH oxidase 1 [30] = target: T3, NADPH oxidase 1; experiment: Luminescence-based cell-based dose response assay to identify inhibitors of NADPH oxidase 1 (NOX1).; type: functional
[31] = target: T4, Rac GTPase-activating protein 1 (Homo sapiens, UniProt Q9H0H5); experiment: blockers of MgcRacGAP-driven Rac1 GTP hydrolysis – biochemical, ADP Hunter fluorescence, primary and confirmatory, confirmation (AID 624330); type: functional
T4 sequence (Q9H0H5 whole entry): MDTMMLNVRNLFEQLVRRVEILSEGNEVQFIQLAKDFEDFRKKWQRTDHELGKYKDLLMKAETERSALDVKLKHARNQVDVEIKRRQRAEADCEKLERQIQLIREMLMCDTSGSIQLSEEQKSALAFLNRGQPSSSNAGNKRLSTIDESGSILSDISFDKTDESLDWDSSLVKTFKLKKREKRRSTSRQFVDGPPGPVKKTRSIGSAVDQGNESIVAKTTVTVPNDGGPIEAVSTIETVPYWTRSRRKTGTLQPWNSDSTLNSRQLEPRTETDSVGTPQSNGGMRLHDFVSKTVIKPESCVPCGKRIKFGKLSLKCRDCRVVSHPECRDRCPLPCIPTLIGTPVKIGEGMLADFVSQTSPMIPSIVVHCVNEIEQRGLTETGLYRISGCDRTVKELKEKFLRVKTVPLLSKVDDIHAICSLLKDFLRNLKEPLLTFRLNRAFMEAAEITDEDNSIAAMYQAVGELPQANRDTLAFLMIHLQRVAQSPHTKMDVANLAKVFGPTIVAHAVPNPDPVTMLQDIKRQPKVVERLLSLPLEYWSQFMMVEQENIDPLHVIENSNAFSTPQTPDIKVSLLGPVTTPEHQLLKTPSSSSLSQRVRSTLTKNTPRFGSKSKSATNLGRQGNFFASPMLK

## COc1ccccc1NC(=O)Nc1nc(CC(=O)N2CCN(c3ccccc3F)CC2)cs1
[1]
  IC50: > 100 µM (active)
[2]
  CC50: > 40 µM (active)

## Cc1cc(C)c(S(=O)(=O)N2CCCCC2)cc1N(C)S(=O)(=O)c1ccc(Cl)cc1
Mucolipin-3
  EC50: 1.37 µM (active)
Ion channel NompC
  EC50: > 29.9 µM (not active)
[3]
  AC50: 5.6 µM (active)
[4]
  AC50: 7.77 µM (active)
[5]
  AC50: 11.2 µM (active)
[6]
  AC50: 8.27 µM (active)

## O=C(Nc1ccccc1)C(c1ccccc1)C1CCCC1 (stereo unspecified)
[7]
  IC50: 12.1 µM (not active)
[8]
  IC50: 6.6 µM (active)

## Cc1cc(C(=O)CN(C)CC(=O)NC(C)C)c(C)n1Cc1ccccc1
[9]
  EC50: > 30 µM (not active)

## COc1ccc(Sc2ccc(NC(=O)c3ccccc3Cl)cc2C#N)cc1
[10]
  EC50: 1.21 µM (active)
Streptococcus [11]
  EC50: > 500 µM (not active)
Streptokinase A [12]
  EC50: 4.98 µM (active)
Streptokinase A [13]
  EC50: 3.14 µM (active)
Streptococcus [14]
  EC50: > 150 µM (not active)
[15]
  IC50: > 109 µM (inactive)
[16]
  IC50: > 9.26 µM (active)
Cytochrome P450 2C9
  AC50: 2.51 µM (inconclusive)
[17]
  EC50: 2.27 µM (active)

## CC1=CC2=NC(=O)/C(=C\c3cn(C)c4ccccc34)C(=N)N2O1
[18]
  IC50: 8.61 µM (active)
[19]
  IC50: > 111 µM (not active)

## O=C(c1cccc(COc2ccc(Cl)cc2Cl)c1)N1CCN(c2ccccn2)CC1
[20]
  EC50: 275 nM (active)
[21]
  EC50: < 100 nM (inconclusive)
[22]
  EC50: 46.5 µM (active)
[23]
  EC50: 242 nM (active)
HT-1080
  EC50: > 50 µM (not active)
[24]
  IC50: > 50 µM (not active)
[25]
  EC50: 251 nM (active)

## CC(C)NC(=S)N/N=C/c1sc(N2CCCCC2)nc1-c1cccs1
[26]
  EC50: > 100 µM (active)
[27]
  IC50: 9.24 µM (active)
[28]
  IC50: 9.6 µM (active)
Prothrombin
  IC50: 20.1 µM (active)

## c1ccc2c(c1)Nc1ccccc1S2 [PHENOTHIAZINE]
NADPH oxidase 1 [29]
  IC50: 369 nM (active)
NADPH oxidase 1 [30]
  IC50: 349 nM (active)
[31]
  IC50: 18.5 µM (active)
